For 78 molecules, chromatographic logP and LogP results are on record in US20180339976A1, “NOVEL TRIAZOLE DERIVATIVES” (priority 2015, published 2018).

A word on the chromatographic logP: it is lipophilicity estimated from chromatographic retention.

A short description of the first data set: Log P by HPLC on reversed phase columns (EEC directive 79/831 Annex V.A8). It counts as physicochemical.
Details: not given
As for the experimental part: Measurement of Log P values was performed according to EEC directive 79/831 Annex V.A8 by HPLC (High Performance Liquid Chromatography) on reversed phase columns with the following methods: • ^[a]
If more than one Log P value is available within the same method, all the values are given and separated by “+”.
Lambda-max-values were determined using UV-spectra from 200 nm to 400 nm and the peak values of the chromatographic signals.
`OC(Cc1cccnc1Cl)(Cn1cncn1)c1ccc(Cl)cc1F` (stereo not drawn) [Example I-29, 2-(4-chloro-2-fluoro-phenyl)-1-(2-chloro-3-pyridyl)-3-(1,2,4-triazol-1-yl)propan-2-ol] came in with a chromatographic logP of 2.15.
Take `OC(Cc1ccnc(Cl)c1)(Cn1cncn1)c1ccc(Oc2ccc(F)cc2F)cc1` (stereo not drawn) [Example I-25]: the LogP was 2.69^[a].
Same read-out and setting: then `OC(Cc1ccncc1Cl)(Cn1cncn1)c1ccc(Cl)cc1Cl` (stereo not drawn) [Example I-42], with 2.38^[a].
`OC(Cc1ccncc1Cl)(Cn1cncn1)c1ccc(Oc2ccc(F)cc2F)cc1` (stereo not drawn) [Example I-19]: the LogP is 2.57^[a].
Consider `OC(Cc1ccnc(Cl)c1F)(Cn1cncn1)c1ccc(F)cc1F` (stereo not drawn) [Example I-08, 1-(2-chloro-3-fluoro-4-pyridyl)-2-(2,4-difluorophenyl)-3-(1,2,4-triazol-1-yl)propan-2-ol], for which the chromatographic logP is 2.14.
On to `OC(Cc1cc(F)ncc1Cl)(Cn1cncn1)c1ccccc1` (stereo not drawn) [Example I-14], for which the LogP is 2.02^[a].
Same read-out and setting: then `OC(Cc1cccnc1Cl)(Cn1cncn1)c1cccc(Cl)c1` (stereo not drawn) [Example I-17], with 1.97^[a]; and `OC(Cc1ccncc1Cl)(Cn1cncn1)c1ccc(Oc2ccccc2)cc1` (stereo not drawn) [Example I-01], with 2.46^[a]; and `OC(Cc1cccnc1Cl)(Cn1cncn1)c1ccc(C(F)(F)F)cc1` (stereo not drawn) [Example I-16], with 2.22^[a].
Regarding `OC(Cc1ccnc(Cl)c1F)(Cn1cncn1)c1ccc(F)cc1` (stereo not drawn) [Example I-23], the LogP was 1.91^[a].
Consider `OC(Cc1ccnc(Cl)c1)(Cn1cncn1)c1ccc(Oc2ccccc2)cc1` (stereo not drawn) [Example I-24], for which the LogP is 2.57^[a].
The same measure, in the same setting: the result for `OC(Cc1cccnc1Cl)(Cn1cncn1)c1ccccc1` (stereo not drawn) [Example I-51] reads 1.61^[a].
Still for that read-out and setting: then `OC(Cc1ccnc(Cl)c1F)(Cn1cncn1)c1ccccc1` (stereo not drawn) [Example I-49], with 1.84^[a].
Same read-out and setting: then `OC(Cc1ccncc1F)(Cn1cncn1)c1ccc(Oc2ccccc2)cc1` (stereo not drawn) [Example I-03], with 2.13^[a]; and `OC(Cc1ccncc1Cl)(Cn1cncn1)c1ccc(F)cc1F` (stereo not drawn) [Example I-30], with 1.76^[a].
Regarding `OC(Cc1cccnc1Cl)(Cn1cncn1)c1ccc(Cl)cc1` (stereo not drawn) [Example I-52], the LogP is 1.99^[a].
The same measure, in the same setting: then `OC(Cc1ccnc(Cl)c1)(Cn1cncn1)c1ccccc1` (stereo not drawn) [Example I-37], with 1.60^[a]; and `OC(Cc1ccncc1Cl)(Cn1cncn1)c1ccc(Cl)cc1` (stereo not drawn) [Example I-11], with 1.86^[a].
On to `OC(Cc1ccnc(Cl)c1)(Cn1cncn1)c1ccc(F)cc1` (stereo not drawn) [Example I-05], for which the LogP was 1.69^[a].
On the same count and under the same terms, then `OC(Cc1ccnc(Cl)c1)(Cn1cncn1)c1ccc(Cl)cc1` (stereo not drawn) [Example I-47], with 1.96^[a]; and `OC(Cc1ccnc(Cl)c1F)(Cn1cncn1)c1ccc(Cl)cc1Cl` (stereo not drawn) [Example I-09], with 2.69^[a].
Consider `OC(Cc1cc(F)ncc1Cl)(Cn1cncn1)c1ccc(F)cc1` (stereo not drawn) [Example I-15], for which the LogP was 2.12^[a].
Still for that read-out and setting: then `OC(Cc1ccnc(Cl)c1)(Cn1cncn1)c1ccc(F)cc1F` (stereo not drawn) [Example I-44], with 1.86^[a].
Turning to `OC(Cc1ccncc1F)(Cn1cncn1)c1ccc(Oc2ccc(F)cc2F)cc1` (stereo not drawn) [Example I-20], the LogP was 2.27^[a].
On the same count and under the same terms, the result for `OC(Cc1ccncc1F)(Cn1cncn1)c1ccc(Cl)cc1` (stereo not drawn) [Example I-31] reads 1.54^[a]; that for `CC(C)(C)c1noc(-c2ccc(C(O)(Cc3ccncc3Cl)Cn3cncn3)cc2)n1` (stereo not drawn) [Example I-38], 2.65^[a].
Still for that read-out and setting: the result for `OC(Cc1cc(Cl)ncc1F)(Cn1cncn1)c1ccc(F)cc1` (stereo not drawn) [Example I-32] reads 1.96^[a].
Still for that read-out and setting: then `OC(Cc1ccncc1F)(Cn1cncn1)c1ccccc1` (stereo not drawn) [Example I-36], with 1.13^[a].

Still in this data set, the particulars now being: Table 1, formula (I); method [a]: LC-UV, acidic range, 0.1% formic acid in water and acetonitrile.
As to `OC(Cc1cc(Cl)ncc1F)(Cn1cncn1)c1ccc(-c2ccccc2)cc1` (stereo not drawn) [Example I-26], the LogP was 2.88^[a].
Consider `OC(Cc1ccnc(Cl)c1)(Cn1cncn1)c1ccc(-c2ccccc2)cc1` (stereo not drawn) [Example I-39], for which the LogP was 2.57^[a].
On the same count and under the same terms, then `OC(Cc1ccncc1F)(Cn1cncn1)c1ccc(-c2ccccc2)cc1` (stereo not drawn) [Example I-04], with 2.13^[a]; and `OC(Cc1ccncc1Cl)(Cn1cncn1)c1ccc(-c2ccccc2)cc1` (stereo not drawn) [Example I-02], with 2.46^[a].

Still in this data set, the particulars now being: Table 2, epoxides of formula (XII); method [a]: LC-UV, acidic range, 0.1% formic acid in water and acetonitrile.
Consider `Fc1cccc(F)c1C1(Cc2ccncc2Cl)CO1` (stereo not drawn) [XII-66], for which the LogP is 2.50^[a].
Take `Fc1ccc(Oc2ccc(C3(Cc4cc(F)ncc4Cl)CO3)cc2)c(F)c1` (racemic) [XII-41]: the LogP is 4.51^[a].
Same read-out and setting: the result for `Fc1cnccc1CC1(c2ccc(-c3ccccc3)cc2)CO1` (stereo not drawn) [XII-8] reads 3.37^[a].
Take `Fc1c(CC2(c3ccc(Oc4ccccc4)cc3)CO2)ccnc1Cl` (racemic) [XII-48]: the LogP is 4.20^[a].
In the case of `Fc1c(CC2(c3ccc(Cl)cc3)CO2)ccnc1Cl` (racemic) [XII-43], the LogP was 3.58^[a].
On the same count and under the same terms, then `Clc1ccc(C2(Cc3ccncc3Cl)CO2)c(Cl)c1` (stereo not drawn) [XII-31], with 3.06^[a]; and `Clc1ccc(C2(Cc3ccnc(Cl)c3)CO2)cc1` (stereo not drawn) [XII-15], with 3.19^[a]; and `Fc1cc(CC2(c3ccc(Cl)cc3Cl)CO2)c(Cl)cn1` (racemic) [XII-36], with 4.45^[a].
`Clc1ccc(C2(Cc3c(Cl)cncc3Cl)CO2)c(Cl)c1` (racemic) [XII-54]: the LogP was 4.76^[a].
As for `Clc1ccc(C2(Cc3ccncc3Cl)CO2)cc1` (stereo not drawn) [XII-30], the LogP was 3.15^[a].
The same measure, in the same setting: the result for `Fc1cnc(Cl)cc1CC1(c2ccc(Oc3ccccc3)cc2)CO1` (stereo not drawn) [XII-18] reads 4.23^[a]; that for `Clc1ccccc1COc1ccc(C2(Cc3ccncc3Cl)CO2)cc1` (racemic) [XII-64], 4.30^[a].
Consider `Clc1cc(CC2(c3ccc(-c4ccccc4)cc3)CO2)ccn1` (stereo not drawn) [XII-13], for which the LogP is 3.89^[a].
On the same count and under the same terms, then `Fc1ccc(C2(Cc3ccnc(Cl)c3)CO2)c(F)c1` (stereo not drawn) [XII-11], with 2.93^[a].
Same read-out and setting: then `Clc1cnccc1CC1(c2cccc(Cl)c2Cl)CO1` (racemic) [XII-61], with 3.53^[a]; and `Clc1cncc(Cl)c1CC1(c2ccc(-c3ccccc3)cc2)CO1` (racemic) [XII-53], with 4.89^[a]; and `N#Cc1ccc(C2(Cc3cccnc3Cl)CO2)cc1` (stereo not drawn) [XII-26], with 2.35^[a].
For the molecule `Clc1cncc(Cl)c1CC1(c2ccc(Oc3ccccc3)cc2)CO1` (racemic) [XII-51], the LogP was 4.76^[a].
The same measure, in the same setting: the result for `Fc1cc(CC2(c3ccc(-c4ccccc4)cc3)CO2)c(Cl)cn1` (racemic) [XII-42] reads 4.64^[a]; that for `Fc1ccc(C2(Cc3c(Cl)cncc3Cl)CO2)cc1` (racemic) [XII-56], 3.58^[a].
Still for that read-out and setting: then `Fc1cc(CC2(c3ccc(Cl)cc3)CO2)c(Cl)cn1` (racemic) [XII-37], with 3.85^[a]; and `Fc1cnccc1CC1(c2ccc(Oc3ccccc3)cc2)CO1` (stereo not drawn) [XII-7], with 3.37^[a]; and `Fc1cnc(Cl)cc1CC1(c2ccc(Cl)cc2Cl)CO1` (stereo not drawn) [XII-19], with 4.17^[a].
On the same count and under the same terms, the result for `Fc1ccc(C2(Cc3ccncc3Cl)CO2)c(F)c1` (stereo not drawn) [XII-34] reads 2.76^[a].
Take `Clc1cncc(Cl)c1CC1(c2ccccc2)CO1` (racemic) [XII-58]: the LogP was 3.53^[a].
On the same count and under the same terms, then `Fc1ccc(C2(Cc3cc(F)ncc3Cl)CO2)c(F)c1` (racemic) [XII-35], with 3.46^[a]; and `Fc1ccc(Oc2ccc(C3(Cc4c(Cl)cncc4Cl)CO3)cc2)c(F)c1` (racemic) [XII-52], with 4.70^[a]; and `Fc1cnccc1CC1(c2ccc(Cl)cc2Cl)CO1` (stereo not drawn) [XII-3], with 3.19^[a].
Same read-out and setting: then `Fc1cc(CC2(c3ccc(Oc4ccccc4)cc3)CO2)c(Cl)cn1` (racemic) [XII-40], with 4.57^[a]; and `Fc1ccc(C2(Cc3cc(F)ncc3Cl)CO2)cc1` (racemic) [XII-39], with 3.37^[a]; and `Clc1ccccc1COc1cccc(C2(Cc3ccncc3Cl)CO2)c1` (racemic) [XII-63], with 4.30^[a].
Turning to `Fc1ccc(C2(Cc3ccnc(Cl)c3F)CO2)c(F)c1` (racemic) [XII-47], the LogP was 3.26^[a].
Take `Fc1ccc(C2(Cc3cc(Cl)ncc3F)CO2)c(F)c1` (stereo not drawn) [XII-20]: the LogP was 3.24^[a].
Still for that read-out and setting: then `Clc1cc(CC2(c3ccc(Oc4ccccc4)cc3)CO2)ccn1` (stereo not drawn) [XII-9], with 3.37^[a]; and `Fc1ccc(C2(Cc3ccncc3F)CO2)c(F)c1` (stereo not drawn) [XII-6], with 2.38^[a]; and `Fc1cnc(Cl)cc1CC1(c2ccc(Cl)cc2)CO1` (stereo not drawn) [XII-17], with 3.56^[a].
On to `Fc1ccc(Oc2ccc(C3(Cc4ccnc(Cl)c4F)CO3)cc2)c(F)c1` (racemic) [XII-44], for which the LogP was 4.20^[a].
Still for that read-out and setting: then `Clc1cnccc1CC1(c2ccc(Oc3ccccc3)cc2)CO1` (stereo not drawn) [XII-32], with 3.80^[a]; and `Fc1ccc(Oc2ccc(C3(Cc4ccnc(Cl)c4)CO3)cc2)c(F)c1` (stereo not drawn) [XII-12], with 3.85^[a].
On the same count and under the same terms, the result for `Fc1ccc(C2(Cc3cc(Cl)ncc3F)CO2)cc1` (stereo not drawn) [XII-16] reads 3.15^[a].
Still for that read-out and setting: the result for `Fc1ccc(C2(Cc3ccnc(Cl)c3F)CO2)cc1` (racemic) [XII-50] reads 3.11^[a]; that for `Clc1cnccc1CC1(c2ccc(-c3ccccc3)cc2)CO1` (stereo not drawn) [XII-28], 3.85^[a].
`Fc1cnccc1CC1(c2ccc(Cl)cc2)CO1` (stereo not drawn) [XII-2]: the LogP is 2.65^[a].
The same measure, in the same setting: the result for `Clc1ccc(C2(Cc3c(Cl)cncc3Cl)CO2)cc1` (racemic) [XII-57] reads 4.10^[a]; that for `Fc1cc(CC2(c3ccccc3Cl)CO2)c(Cl)cn1` (racemic) [XII-38], 3.80^[a]; that for `Fc1c(CC2(c3ccc(-c4ccccc4)cc3)CO2)ccnc1Cl` (racemic) [XII-45], 4.25^[a].
